Results reported in patent publication US10538555B2, “Macrocyclic inhibitors of the PD-1/PD-L1 and CD80(B7-1)/PD-L1 protein/protein interactions” (BRISTOL-MYERS SQUIBB COMPANY, priority 2014, dated 2020).
pIC50: −log10 of the molar value. Where a SMILES comes first, the peptide text is derived from it. Bridges are numbered along the chain shown (N, C = ends). [ ]: non-standard residue; d: D form. ξ: configuration not given here. Phe(3,4,5-F3) = N[C@@H](Cc1cc(F)c(F)c(F)c1)C(=O)O; Hyp = O=C(O)[C@@H]1C[C@@H](O)CN1; NMeF = CN[C@@H](Cc1ccccc1)C(=O)O; NMeNle = CCCC[C@H](NC)C(=O)O; hSer = N[C@@H](CCO)C(=O)O; NMeA = CN[C@@H](C)C(=O)O; dNMeA = CN[C@H](C)C(=O)O; Dab = NCC[C@H](N)C(=O)O; Dap = NC[C@H](N)C(=O)O; ξC = NC(CS)C(=O)O

molecular target: T1, Human PD-L1/PD-1 (Homo sapiens, UniProt Q9NZQ7); assay: HTRF Human PD-L1/PD-1 binding assay (PD-1-Ig/PD-L1-His); conditions: PD-L1-His 10 nM, PD-1-Ig 20 nM; class symbol; read-out: HTRF Human PD-L1/PD-1 Binding Assay IC50 Range
T1 construct: TVMV protease cleavage site (C); made in house; host or cells: HEK293T cells
T1 sequence (Q9NZQ7 with tags, fused parts or gaps): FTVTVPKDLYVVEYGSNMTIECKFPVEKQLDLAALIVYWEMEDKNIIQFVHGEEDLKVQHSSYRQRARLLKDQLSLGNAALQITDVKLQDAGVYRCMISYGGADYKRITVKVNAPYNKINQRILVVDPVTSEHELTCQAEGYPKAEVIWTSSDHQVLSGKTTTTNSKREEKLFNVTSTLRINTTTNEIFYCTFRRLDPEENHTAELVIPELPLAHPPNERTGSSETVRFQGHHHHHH
Procedure, shortened: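 Inhibitors were preincubated 15 min with human PD-L1(18-239)-His (10 nM final), then PD-1(25-167)-Ig (20 nM final) was added for 15 min in dPBS/0.1% BSA/0.05% Tween-20. Eu-cryptate anti-Ig (1 nM) and APC anti-His (20 nM) were added; 665/620 nm ratio read after 30 min.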

Compound | pIC50
CCCC[C@H]1C(=O)N(C)[C@@H](CCCC)C(=O)N[C@@H](CCC(=O)O)C(=O)NC(C(=O)NCC(N)=O)CSCC(=O)N[C@@H](Cc2ccc(O)cc2)C(=O)N(C)[C@@H](C)C(=O)N[C@@H](CC(N)=O)C(=O)N2CCC[C@H]2C(=O)N[C@@H](CC(N)=O)C(=O)N[C@@H](CC(C)C)C(=O)N2CCC[C@H]2C(=O)N[C@@H](Cc2c[nH]c3ccccc23)C(=O)N[C@@H](CN)C(=O)N[C@@H](Cc2c[nH]c3ccccc23)C(=O)N1C (stereo partly drawn) [Example 9176] ({CH2CO}-Y[NMeA]NPNLPW[Dap]W[NMeNle][NMeNle]E[ξC]G-NH2; thioether N-14) | 6.00 to 7.00
CCCC[C@H]1C(=O)N(C)[C@@H](CCCC)C(=O)N[C@@H](CCC(=O)O)C(=O)NC(C(=O)NCC(N)=O)CSCC(=O)N[C@@H](Cc2ccc(O)cc2)C(=O)N(C)[C@@H](C)C(=O)N[C@@H](CC(N)=O)C(=O)N2CCC[C@H]2C(=O)N[C@@H](CC(N)=O)C(=O)N[C@@H](CC(C)C)C(=O)N2C[C@H](O)C[C@H]2C(=O)N[C@@H](Cc2c[nH]c3ccccc23)C(=O)N[C@@H](CN)C(=O)N[C@@H](Cc2c[nH]c3ccccc23)C(=O)N1C (stereo partly drawn) [Example 9177] ({CH2CO}-Y[NMeA]NPNL[Hyp]W[Dap]W[NMeNle][NMeNle]E[ξC]G-NH2; thioether N-14) | 6.00 to 7.00
CCCC[C@H]1C(=O)N(C)[C@@H](CCCC)C(=O)N[C@@H](CCC(=O)O)C(=O)NC(C(=O)NCC(N)=O)CSCC(=O)N[C@@H](Cc2ccc(O)cc2)C(=O)N(C)[C@@H](C)C(=O)N[C@@H](CC(N)=O)C(=O)N2CCC[C@H]2C(=O)N[C@@H](CC(N)=O)C(=O)N[C@@H](CC(C)C)C(=O)N2CCC[C@H]2C(=O)N[C@@H](Cc2c[nH]c3ccccc23)C(=O)N[C@@H](CCN)C(=O)N[C@@H](Cc2c[nH]c3ccccc23)C(=O)N1C (stereo partly drawn) [Example 9180] ({CH2CO}-Y[NMeA]NPNLPW[Dab]W[NMeNle][NMeNle]E[ξC]G-NH2; thioether N-14) | 8.00 to 9.00
CCCC[C@H]1C(=O)N(C)[C@@H](CCCC)C(=O)N[C@@H](CCC(=O)O)C(=O)NC(C(=O)NCC(N)=O)CSCC(=O)N[C@@H](Cc2ccc(O)cc2)C(=O)N(C)[C@@H](C)C(=O)N[C@@H](CC(N)=O)C(=O)N2CCC[C@H]2C(=O)N[C@@H](CC(N)=O)C(=O)N[C@@H](CC(C)C)C(=O)N2C[C@H](O)C[C@H]2C(=O)N[C@@H](Cc2c[nH]c3ccccc23)C(=O)N[C@@H](CCN)C(=O)N[C@@H](Cc2c[nH]c3ccccc23)C(=O)N1C (stereo partly drawn) [Example 9181] ({CH2CO}-Y[NMeA]NPNL[Hyp]W[Dab]W[NMeNle][NMeNle]E[ξC]G-NH2; thioether N-14) | 8.00 to 9.00
CCCC[C@H]1C(=O)N(C)[C@@H](CCCC)C(=O)N[C@@H](CCC(=O)O)C(=O)NC(C(=O)NCC(N)=O)CSCC(=O)N[C@@H](Cc2ccc(O)cc2)C(=O)N(C)[C@@H](C)C(=O)N[C@@H](CC(N)=O)C(=O)N2CCC[C@H]2C(=O)N[C@@H](CC(N)=O)C(=O)N[C@@H](CC(C)C)C(=O)N2CCC[C@H]2C(=O)N[C@@H](Cc2c[nH]c3ccccc23)C(=O)N[C@@H](CCO)C(=O)N[C@@H](Cc2c[nH]c3ccccc23)C(=O)N1C (stereo partly drawn) [Example 9184] ({CH2CO}-Y[NMeA]NPNLPW[hSer]W[NMeNle][NMeNle]E[ξC]G-NH2; thioether N-14) | 7.00 to 8.00
CCCC[C@H]1C(=O)N(C)[C@@H](CCCC)C(=O)N[C@@H](CCC(=O)O)C(=O)NC(C(=O)NCC(N)=O)CSCC(=O)N[C@@H](Cc2ccc(O)cc2)C(=O)N(C)[C@@H](C)C(=O)N[C@@H](CC(N)=O)C(=O)N2CCC[C@H]2C(=O)N[C@@H](CC(N)=O)C(=O)N[C@@H](CC(C)C)C(=O)N2C[C@H](O)C[C@H]2C(=O)N[C@@H](Cc2c[nH]c3ccccc23)C(=O)N[C@@H](CCO)C(=O)N[C@@H](Cc2c[nH]c3ccccc23)C(=O)N1C (stereo partly drawn) [Example 9185] ({CH2CO}-Y[NMeA]NPNL[Hyp]W[hSer]W[NMeNle][NMeNle]E[ξC]G-NH2; thioether N-14) | 8.00 to 9.00
CCCC[C@H]1C(=O)N(C)[C@@H](CCCC)C(=O)N[C@@H](CCC(=O)O)C(=O)NC(C(=O)NCC(N)=O)CSCC(=O)N[C@@H](Cc2ccc(O)cc2)C(=O)N(C)[C@@H](C)C(=O)N[C@@H](CC(N)=O)C(=O)N2CCC[C@H]2C(=O)N[C@@H](Cc2c[nH]cn2)C(=O)N[C@@H](CC(N)=O)C(=O)N2CCC[C@H]2C(=O)N[C@@H](Cc2c[nH]c3ccccc23)C(=O)N[C@@H](CCO)C(=O)N[C@@H](Cc2c[nH]c3ccccc23)C(=O)N1C (stereo partly drawn) [Example 9186] ({CH2CO}-Y[NMeA]NPHNPW[hSer]W[NMeNle][NMeNle]E[ξC]G-NH2; thioether N-14) | 7.00 to 8.00
CC(C)C[C@@H]1NC(=O)[C@H](Cc2ccc(O)cc2)NC(=O)[C@H](Cc2c[nH]c3ccccc23)NC(=O)[C@@H](C)N(C)C(=O)[C@H](Cc2ccc(O)cc2)NC(=O)[C@H](Cc2ccccc2)N(C)C(=O)[C@H](C(C)C)NC(=O)[C@H](CC(=O)O)NC(=O)[C@@H](C)N(C)C(=O)[C@H](C)N(C)C(=O)[C@H](Cc2ccccc2)N(C)C(=O)[C@H](Cc2cc(F)c(F)c(F)c2)NC(=O)CSC[C@@H](C(=O)NCC(N)=O)NC1=O [Example 9188] ({CH2CO}-[Phe(3,4,5-F3)][NMeF][NMeA][dNMeA]DV[NMeF]Y[dNMeA]WYLCG-NH2; thioether N-13) | 8.00 to 9.00
CC(C)C[C@@H]1NC(=O)[C@H](Cc2ccc(O)cc2)NC(=O)[C@H](Cc2c[nH]c3ccccc23)NC(=O)[C@@H](C)N(C)C(=O)[C@H](Cc2ccc(O)cc2)NC(=O)[C@H](Cc2ccccc2)N(C)C(=O)[C@H](C(C)C)NC(=O)[C@H](CCC(=O)O)NC(=O)[C@@H](C)N(C)C(=O)[C@H](C)N(C)C(=O)[C@H](Cc2ccccc2)N(C)C(=O)[C@H](Cc2cc(F)c(F)c(F)c2)NC(=O)CSC[C@@H](C(=O)NCC(N)=O)NC1=O [Example 9189] ({CH2CO}-[Phe(3,4,5-F3)][NMeF][NMeA][dNMeA]EV[NMeF]Y[dNMeA]WYLCG-NH2; thioether N-13) | 8.00 to 9.00

The next lines start with the values.

pIC50 | Compound
6.00 to 7.00 | CCCC[C@H]1C(=O)N(C)[C@@H](CCCC)C(=O)N[C@@H](CCC(=O)O)C(=O)NC(C(=O)NCC(N)=O)CSCC(=O)N[C@@H](Cc2ccc(O)cc2)C(=O)N(C)[C@@H](C)C(=O)N[C@@H](CC(N)=O)C(=O)N2CCC[C@H]2C(=O)N[C@@H](Cc2c[nH]cn2)C(=O)N[C@@H](CC(N)=O)C(=O)N2CCC[C@H]2C(=O)N[C@@H](Cc2c[nH]c3ccccc23)C(=O)N[C@@H](CN)C(=O)N[C@@H](Cc2c[nH]c3ccccc23)C(=O)N1C (stereo partly drawn) [Example 9178] ({CH2CO}-Y[NMeA]NPHNPW[Dap]W[NMeNle][NMeNle]E[ξC]G-NH2; thioether N-14)
6.00 to 7.00 | CCCC[C@H]1C(=O)N(C)[C@@H](CCCC)C(=O)N[C@@H](CCC(=O)O)C(=O)NC(C(=O)NCC(N)=O)CSCC(=O)N[C@@H](Cc2ccc(O)cc2)C(=O)N(C)[C@@H](C)C(=O)N[C@@H](CC(N)=O)C(=O)N2CCC[C@H]2C(=O)N[C@@H](Cc2c[nH]cn2)C(=O)N[C@@H](CC(N)=O)C(=O)N2C[C@H](O)C[C@H]2C(=O)N[C@@H](Cc2c[nH]c3ccccc23)C(=O)N[C@@H](CN)C(=O)N[C@@H](Cc2c[nH]c3ccccc23)C(=O)N1C (stereo partly drawn) [Example 9179] ({CH2CO}-Y[NMeA]NPHN[Hyp]W[Dap]W[NMeNle][NMeNle]E[ξC]G-NH2; thioether N-14)
8.00 to 9.00 | CCCC[C@H]1C(=O)N(C)[C@@H](CCCC)C(=O)N[C@@H](CCC(=O)O)C(=O)NC(C(=O)NCC(N)=O)CSCC(=O)N[C@@H](Cc2ccc(O)cc2)C(=O)N(C)[C@@H](C)C(=O)N[C@@H](CC(N)=O)C(=O)N2CCC[C@H]2C(=O)N[C@@H](Cc2c[nH]cn2)C(=O)N[C@@H](CC(N)=O)C(=O)N2CCC[C@H]2C(=O)N[C@@H](Cc2c[nH]c3ccccc23)C(=O)N[C@@H](CCN)C(=O)N[C@@H](Cc2c[nH]c3ccccc23)C(=O)N1C (stereo partly drawn) [Example 9182] ({CH2CO}-Y[NMeA]NPHNPW[Dab]W[NMeNle][NMeNle]E[ξC]G-NH2; thioether N-14)
8.00 to 9.00 | CCCC[C@H]1C(=O)N(C)[C@@H](CCCC)C(=O)N[C@@H](CCC(=O)O)C(=O)NC(C(=O)NCC(N)=O)CSCC(=O)N[C@@H](Cc2ccc(O)cc2)C(=O)N(C)[C@@H](C)C(=O)N[C@@H](CC(N)=O)C(=O)N2CCC[C@H]2C(=O)N[C@@H](Cc2c[nH]cn2)C(=O)N[C@@H](CC(N)=O)C(=O)N2C[C@H](O)C[C@H]2C(=O)N[C@@H](Cc2c[nH]c3ccccc23)C(=O)N[C@@H](CCN)C(=O)N[C@@H](Cc2c[nH]c3ccccc23)C(=O)N1C (stereo partly drawn) [Example 9183] ({CH2CO}-Y[NMeA]NPHN[Hyp]W[Dab]W[NMeNle][NMeNle]E[ξC]G-NH2; thioether N-14)
8.00 to 9.00 | CCCC[C@H]1C(=O)N(C)[C@@H](CCCC)C(=O)N[C@@H](CCC(=O)O)C(=O)NC(C(=O)NCC(N)=O)CSCC(=O)N[C@@H](Cc2ccc(O)cc2)C(=O)N(C)[C@@H](C)C(=O)N[C@@H](CC(N)=O)C(=O)N2CCC[C@H]2C(=O)N[C@@H](Cc2c[nH]cn2)C(=O)N[C@@H](CC(N)=O)C(=O)N2C[C@H](O)C[C@H]2C(=O)N[C@@H](Cc2c[nH]c3ccccc23)C(=O)N[C@@H](CCO)C(=O)N[C@@H](Cc2c[nH]c3ccccc23)C(=O)N1C (stereo partly drawn) [Example 9187] ({CH2CO}-Y[NMeA]NPHN[Hyp]W[hSer]W[NMeNle][NMeNle]E[ξC]G-NH2; thioether N-14)

same assay, conditions: PD-L1-His 10 nM, PD-1-Ig 20 nM; read-out: HTRF Human PD-L1/PD-1 Binding Assay IC50

pIC50 | Compound
6.44 | CCCC[C@H]1C(=O)N(C)[C@@H](CCCC)C(=O)N[C@@H](CCC(=O)O)C(=O)NC(C(=O)NCC(N)=O)CSCC(=O)N[C@@H](Cc2ccc(O)cc2)C(=O)N(C)[C@@H](C)C(=O)N[C@@H](CC(N)=O)C(=O)N2CCC[C@H]2C(=O)N[C@@H](Cc2c[nH]cn2)C(=O)N[C@@H](CC(N)=O)C(=O)N2C[C@H](O)C[C@H]2C(=O)N[C@@H](Cc2c[nH]c3ccccc23)C(=O)N[C@@H](CC(=O)O)C(=O)N[C@@H](Cc2c[nH]c3ccccc23)C(=O)N1C (stereo partly drawn) [Example 9175] ({CH2CO}-Y[NMeA]NPHN[Hyp]WDW[NMeNle][NMeNle]E[ξC]G-NH2; thioether N-14)
